Tests used:
[1] = tested on: ABUTH (Abutilon theophrasti); test: Postemergence herbicidal evaluation; assay type: in vivo, Medic.; settings: postemergence
Method: (§1) In the tests, seedling plants are grown in jiffy flats for about two weeks. […] After spraying, the plants are placed on greenhouse benches and are cared for in accordance with conventional greenhouse procedures. From four to five weeks after treatment, the seedling plants are examined and rated according to the rating system set forth below. Where more than one test is involved for a given compound, the data are averaged.
(§2) Results of herbicide evaluation are expressed on a rating scale (0-9). The scale is based upon a visual observation of plant stand, vigor, malformation, size, chlorosis and overall plant appearance as compared with a control.

[2] = tested on: AMBEL (Ambrosia artemisifolia); test: Postemergence herbicidal evaluation; assay type: in vivo, L.; settings: postemergence
Method: as §1, §2

[3] = tested on: CASOB (Cassia obtusifolia); test: Postemergence herbicidal evaluation; assay type: in vivo, L.; settings: postemergence
Method: as §1, §2

[4] = tested on: CHEAL (Chenopodium album); test: Postemergence herbicidal evaluation; assay type: in vivo, L.; settings: postemergence
Method: as §1, §2

GALAP (Galium aparine) [5] = test: Postemergence herbicidal evaluation; assay type: in vivo; settings: postemergence
Method: as §1, §2

[6] = tested on: IPOHE (Ipomoea hederacea); test: Postemergence herbicidal evaluation; assay type: in vivo, (L.) Jacq.; settings: postemergence
Method: as §1, §2

[7] = tested on: ECHCG (Echinochloa crus-galli); test: Postemergence herbicidal evaluation; assay type: in vivo, (L.) Beau; settings: postemergence
Method: as §1, §2

SETVI (Setaria viridis) [8] = test: Postemergence herbicidal evaluation; assay type: in vivo, (L.) Beau; settings: postemergence
Method: In the tests, seedling plants are grown in jiffy flats for about two weeks. The test compounds are dispersed in 50/50 acetone/water mixtures containing 0.5% TWEEN® 20, a polyoxyethylene sorbitan monolaurate surfactant of Atlas Chemical Industries, in sufficient quantities to provide the equivalent of about 0.0040 kg to 1.000 kg per hectare of active compound when applied to the plants through a spray nozzle operating at 40 psi for a predetermined time. After spraying, the plants are placed on greenhouse benches and are cared for in accordance with conventional greenhouse procedures. From four to five weeks after treatment, the seedling plants are examined and rated according to the rating system set forth below. Where more than one test is involved for a given compound, the data are averaged.
as §2

[9] = tested on: GLXMAW (Soybean, Williams); test: Postemergence herbicidal evaluation; assay type: in vivo, Glycine max, (L.) Merr. cv Williams; settings: postemergence
Method: as §1, §2

ORYSAT (Rice, Tebonnet) [10] = test: Postemergence herbicidal evaluation; assay type: in vivo, Oryza sativa, (L.) Tebonnet; settings: postemergence
Method: as §1, §2

[11] = tested on: TRZAWR (Wheat, Winter, cv Riband); test: Postemergence herbicidal evaluation; assay type: in vivo, Triticum aestivum; settings: postemergence
Method: as §1, §2

ZEAMX (Corn, Field) [12] = test: Postemergence herbicidal evaluation; assay type: in vivo, Zea mays, L.; settings: postemergence
Method: as §1, §2

[13] = tested on: ABUTH (Abutilon theophrasti); test: Preemergence herbicidal evaluation; assay type: in vivo, Medic.; settings: Rate 0.0620 kg/ha; rated 4-5 weeks after treatment
Excerpt: as §2
(§3) The preemergence herbicidal activity of the test compounds of the present invention is exemplified by the following tests in which the seeds of a variety of monocotyledonous and dicotyledonous plants are separately mixed with potting soil and planted on top of approximately one inch of soil in separate pint cups. […] The treated cups are then placed on greenhouse benches, watered and cared for in accordance with conventional greenhouse procedures. From four to five weeks after treatment, the tests are terminated and each cup is examined and rated according to the rating system provided in Example 87. The plant species used and the compounds evaluated are the same as those shown in Example 87.

[14] = tested on: AMBEL (Ambrosia artemisifolia); test: Preemergence herbicidal evaluation; assay type: in vivo, L.; settings: Rate 0.0620 kg/ha; rated 4-5 weeks after treatment
Excerpt: as §2, §3

[15] = tested on: CASOB (Cassia obtusifolia); test: Preemergence herbicidal evaluation; assay type: in vivo, L.; settings: Rate 0.0620 kg/ha; rated 4-5 weeks after treatment
Excerpt: as §2, §3

[16] = tested on: CHEAL (Chenopodium album); test: Preemergence herbicidal evaluation; assay type: in vivo, L.; settings: Rate 0.0620 kg/ha; rated 4-5 weeks after treatment
Excerpt: as §2, §3

GALAP (Galium aparine) [17] = test: Preemergence herbicidal evaluation; assay type: in vivo; settings: Rate 0.0620 kg/ha; rated 4-5 weeks after treatment
Excerpt: as §2, §3

[18] = tested on: IPOHE (Ipomoea hederacea); test: Preemergence herbicidal evaluation; assay type: in vivo, (L.) Jacq.; settings: Rate 0.0620 kg/ha; rated 4-5 weeks after treatment
Excerpt: as §2, §3

[19] = tested on: ECHCG (Echinochloa crus-galli); test: Preemergence herbicidal evaluation; assay type: in vivo, (L.) Beau; settings: Rate 0.0620 kg/ha; rated 4-5 weeks after treatment
Excerpt: as §2, §3

SETVI (Setaria viridis) [20] = test: Preemergence herbicidal evaluation; assay type: in vivo, (L.) Beau; settings: Rate 0.0620 kg/ha; rated 4-5 weeks after treatment
Excerpt: as §2, §3

[21] = tested on: GLXMAW (Soybean, Williams); test: Preemergence herbicidal evaluation; assay type: in vivo, Glycine max, (L.) Merr. cv Williams; settings: Rate 0.0620 kg/ha; rated 4-5 weeks after treatment
Excerpt: as §2, §3

ORYSAT (Rice, Tebonnet) [22] = test: Preemergence herbicidal evaluation; assay type: in vivo, Oryza sativa, (L.) Tebonnet; settings: Rate 0.0620 kg/ha; rated 4-5 weeks after treatment
Excerpt: as §2, §3

[23] = tested on: TRZAWR (Wheat, Winter, cv Riband); test: Preemergence herbicidal evaluation; assay type: in vivo, Triticum aestivum; settings: Rate 0.0620 kg/ha; rated 4-5 weeks after treatment
Excerpt: as §2, §3

ZEAMX (Corn, Field) [24] = test: Preemergence herbicidal evaluation; assay type: in vivo, Zea mays, L.; settings: Rate 0.0620 kg/ha; rated 4-5 weeks after treatment
Excerpt: as §2, §3

[25] = tested on: ECHORC (Echinochloa oryzoides); test: Flooded paddy, preemergence weed control; assay type: in vivo, Echinochloa oryzoides (Ard.) Fritsch.; settings: rated 3-4 weeks after treatment, 0-9 rating scale
Method: as §2
(§4) Preemergence herbicidal activity under flooded paddy conditions is determined as follows: plant seeds or propagating organs are planted in the top 0.5 cm of silt loam soil in 32 oz. plastic containers with a diameter of 10.5 cm and no drainage holes. Water is added to these containers and maintained at 1.5 to 3 cm above the soil surface for the duration of the experiment. […] The treated containers are placed on greenhouse benches and cared for in accordance with conventional greenhouse procedures.

CYPIR (Cyperus iria) = test: Flooded paddy, preemergence weed control; assay type: in vivo; settings: rated 3-4 weeks after treatment, 0-9 rating scale
Method: as §2, §4

[26] = tested on: MOOVA (Monochoria vaginalis); test: Flooded paddy, preemergence weed control; assay type: in vivo, Presl.; settings: rated 3-4 weeks after treatment, 0-9 rating scale
Method: as §2, §4

[27] = tested on: SAGPY (Sagittaria pygmaea); test: Flooded paddy, preemergence weed control; assay type: in vivo, L.; settings: rated 3-4 weeks after treatment, 0-9 rating scale
Method: as §2, §4

C[C@@H]1OC(c2nsc3cc(F)c(-n4c(=O)cc(C(F)(F)F)n(C)c4=O)cc23)O[C@@H]1C (stereo partly drawn) [Compound 66, 3-[3-[(4R,5S-)-4,5-dimethyl-1,3-dioxolan-2-yl]-6-fluoro-1,2-benzisothiazol-5-yl]-1-methyl-6-(trifluoromethyl)uracil]
9.0: ABUTH herbicidal rating ([1]; rate 0.0320 kg/ha) | ABUTH herbicidal rating ([1]; rate 0.0620 kg/ha) | AMBEL herbicidal rating ([2]; rate 0.0320 kg/ha) | AMBEL herbicidal rating ([2]; rate 0.0620 kg/ha) | CASOB herbicidal rating ([3]; rate 0.0620 kg/ha) | CHEAL herbicidal rating ([4]; rate 0.0320 kg/ha) | CHEAL herbicidal rating ([4]; rate 0.0620 kg/ha) | GALAP herbicidal rating (GALAP (Galium aparine) [5]; rate 0.0320 kg/ha) | GALAP herbicidal rating (GALAP (Galium aparine) [5]; rate 0.0620 kg/ha) | IPOHE herbicidal rating ([6]; rate 0.0320 kg/ha) | IPOHE herbicidal rating ([6]; rate 0.0620 kg/ha) | SETVI herbicidal rating (SETVI (Setaria viridis) [8]; rate 0.0620 kg/ha) | GLXMAW herbicidal rating ([9]; rate 0.0320 kg/ha) | GLXMAW herbicidal rating ([9]; rate 0.0620 kg/ha) | Preemergence herbicidal rating ABUTH [13] | Preemergence herbicidal rating AMBEL [14] | Preemergence herbicidal rating CHEAL [16] | Preemergence herbicidal rating ECHCG [19] | Preemergence herbicidal rating SETVI (SETVI (Setaria viridis) [20]) | Preemergence herbicidal rating GLXMAW [21] | herbicidal rating, ECHORC ([25]; rate 0.0320 kg/ha) | herbicidal rating, ECHORC ([25]; rate 0.1250 kg/ha) | herbicidal rating, CYPIR (CYPIR (Cyperus iria); rate 0.1250 kg/ha) | herbicidal rating, MOOVA ([26]; rate 0.0320 kg/ha) | herbicidal rating, MOOVA ([26]; rate 0.1250 kg/ha) | herbicidal rating, SAGPY ([27]; rate 0.0320 kg/ha) | herbicidal rating, SAGPY ([27]; rate 0.1250 kg/ha)
6.0: Preemergence herbicidal rating CASOB [15] | herbicidal rating, CYPIR (CYPIR (Cyperus iria); rate 0.0320 kg/ha)
5.5: ZEAMX herbicidal rating (ZEAMX (Corn, Field) [12]; rate 0.0320 kg/ha) | ZEAMX herbicidal rating (ZEAMX (Corn, Field) [12]; rate 0.0620 kg/ha)
8.5: Preemergence herbicidal rating ORYSAT (ORYSAT (Rice, Tebonnet) [22])
8.0: CASOB herbicidal rating ([3]; rate 0.0320 kg/ha) | SETVI herbicidal rating (SETVI (Setaria viridis) [8]; rate 0.0320 kg/ha) | Preemergence herbicidal rating TRZAWR [23] | Preemergence herbicidal rating ZEAMX (ZEAMX (Corn, Field) [24])
5.0: ECHCG herbicidal rating ([7]; rate 0.0620 kg/ha)
4.0: TRZAWR herbicidal rating ([11]; rate 0.0320 kg/ha) | TRZAWR herbicidal rating ([11]; rate 0.0620 kg/ha)
0.0: herbicidal rating, MOOVA ([26]; rate 0.0080 kg/ha)
7.0: Preemergence herbicidal rating GALAP (GALAP (Galium aparine) [17])
2.5: herbicidal rating, CYPIR (CYPIR (Cyperus iria); rate 0.0080 kg/ha) | herbicidal rating, SAGPY ([27]; rate 0.0080 kg/ha)
4.5: ORYSAT herbicidal rating (ORYSAT (Rice, Tebonnet) [10]; rate 0.0320 kg/ha) | ORYSAT herbicidal rating (ORYSAT (Rice, Tebonnet) [10]; rate 0.0620 kg/ha) | herbicidal rating, ECHORC ([25]; rate 0.0080 kg/ha)
2.0: ECHCG herbicidal rating ([7]; rate 0.0320 kg/ha)
7.5: Preemergence herbicidal rating IPOHE [18]
